In patent publication US10624968B2, “Compounds for treating cancer” (Bicycle Therapeutics Limited, priority 2017, dated 2020):
Where two headings read alike, the source gives them in different places. Blank lines part the entries; values can stand above or below the compound they belong to. Starred links: 1 amine or outer side, 2 acyl side, 3 side chain; linkers in the order of their positions; H or OH if unused. Positions of bridges follow the written chain, without caps; N, C: chain ends. Non-standard residues stand in square brackets, D forms with d. Residues, ends and D or L forms follow the SMILES beside them. 1Nal = N[C@@H](Cc1cccc2ccccc12)C(=O)O; TBMB = c1c(C[*:1])cc(C[*:3])cc1C[*:2]; Tle = CC(C)(C)[C@H](N)C(=O)O; βAla = NCCC(=O)O; Sar = CNCC(=O)O

How the values were obtained:
[1] = tested on: MT1-positive tumor xenografts; conditions: mouse, in vivo, iv
EBC-1 [2] = conditions: historical, read-out: IC50* (Historical IC50 observed for paclitaxel); cited from earlier work
NCI-H1975 [3] = conditions: historical, read-out: IC50* (Historical IC50 observed for paclitaxel); cited from earlier work
MOLP-8 [4] = conditions: historical, read-out: IC50* (Historical IC50 observed for paclitaxel); cited from earlier work
MDA-MB-231 [5] = experiment: cells; conditions: Homo sapiens, MDA-MB-231, 72 h
From the text: (§1) Details of the initial cell plating procedure are described in Table 3.
(§2) Data Details for Tables 5 and 6. Inhibition %=(Max−Sample value)/(Max−Min)*100.
(§3) The IC50 curves were generated by 4 Parameter Logistic Model—Sigmoidal Dose-Response Model as follows: Y=Bottom+(Top−Bottom)/(1+10^((log EC50-X)*HillSlope)).

EBC-1 [6] = experiment: cells; conditions: Homo sapiens, EBC-1, 72 h
From the text: as §1, §2, §3

HT29 [7] = experiment: cells; conditions: Homo sapiens, HT-29, 72 h
From the text: as §1, §2, §3

NCI-H1975 [8] = experiment: cells; conditions: Homo sapiens, NCI-H1975, 72 h
From the text: as §1, §2, §3

HCT15 [9] = experiment: cells; conditions: Homo sapiens, HCT-15, 72 h
From the text: as §1, §2, §3

HCC1806 [10] = experiment: cells; conditions: Homo sapiens, HCC1806, 72 h
From the text: as §1, §2, §3

NCI-H292 [11] = experiment: cells; conditions: Homo sapiens, NCI-H292, 72 h
From the text: as §1, §2, §3

HT1080 [12] = experiment: cells; conditions: Homo sapiens, HT-1080, 72 h
From the text: as §1, §2, §3

SNU-16 [13] = experiment: cells; conditions: Homo sapiens, SNU-16, 72 h
From the text: as §1, §2, §3

PC-3 [14] = experiment: cells; conditions: Homo sapiens, PC-3, 72 h
From the text: as §1, §2, §3

MOLP-8 [15] = experiment: cells; conditions: Homo sapiens, MOLP-8, 72 h
From the text: as §1, §2, §3

HCT15 [16] = conditions: historical, read-out: IC50* (Historical IC50 observed for paclitaxel); cited from earlier work
HT1080 [17] = conditions: historical, read-out: IC50* (Historical IC50 observed for paclitaxel); cited from earlier work
SNU-16 [18] = conditions: historical, read-out: IC50* (Historical IC50 observed for paclitaxel); cited from earlier work
NCI-H292 [19] = conditions: historical, read-out: IC50* (Historical IC50 observed for paclitaxel); cited from earlier work
PC-3 [20] = conditions: historical, read-out: IC50* (Historical IC50 observed for paclitaxel); cited from earlier work
11 tumor cell lines = experiment: 11 cancer cell line panel cytotoxicity, statements on the whole panel
From the text: as §1, §2, §3

HCC1806 [21] = conditions: historical, read-out: IC50* (Historical IC50 observed for paclitaxel); cited from earlier work
HT29 [22] = conditions: historical, read-out: IC50* (Historical IC50 observed for paclitaxel); cited from earlier work
MDA-MB-231 [23] = conditions: historical, read-out: IC50* (Historical IC50 observed for paclitaxel); cited from earlier work
MMP15 = MMP15 (Homo sapiens, UniProt P51511); experiment: Binding to related MMP family members
MMP9 = MMP9 (Homo sapiens, UniProt P14780); experiment: Effect on related MMP catalytic activity; format: biochemical
Pro-MMP1 = target: T1, Pro-MMP1 (Homo sapiens, UniProt P03956); experiment: Binding to related MMP family members
T1 construct: (MMP15, MMP16, MMP24, MMP1, Pro-MMP1, MMP2)

MT1 = MT1 (Homo sapiens, UniProt P50281); experiment: Effect on catalytic activity of the protease in vitro; format: biochemical
[24] = tested on: cell migration or invasion; experiment: Effect on cell migration or invasion; format: cell-based
MMP2 [25] = target: T2, MMP2 (Homo sapiens, UniProt P08253); experiment: Binding to related MMP family members
MMP2 [26] = target: T2, MMP2; experiment: Effect on related MMP catalytic activity; format: biochemical
MMP24 = MMP24 (Homo sapiens, UniProt Q9Y5R2); experiment: Binding to related MMP family members
MMP1 [27] = target: T3, MMP1 (Homo sapiens, UniProt P03956); experiment: Binding to related MMP family members
MMP16 = MMP16 (Homo sapiens, UniProt P51512); experiment: Binding to related MMP family members
hemopexin domain of MT1 = hemopexin domain of MT1 (Homo sapiens, UniProt P50281); experiment: Bicycle peptide binding to hemopexin domain of MT1; conditions: read-out: apparent Kd
MMP1 [28] = target: T3, MMP1; experiment: Effect on related MMP catalytic activity; format: biochemical
catalytic domain of MT1 = experiment: Bicycle peptide binding to catalytic domain

T2 sequence (P08253 110-660, species assumed): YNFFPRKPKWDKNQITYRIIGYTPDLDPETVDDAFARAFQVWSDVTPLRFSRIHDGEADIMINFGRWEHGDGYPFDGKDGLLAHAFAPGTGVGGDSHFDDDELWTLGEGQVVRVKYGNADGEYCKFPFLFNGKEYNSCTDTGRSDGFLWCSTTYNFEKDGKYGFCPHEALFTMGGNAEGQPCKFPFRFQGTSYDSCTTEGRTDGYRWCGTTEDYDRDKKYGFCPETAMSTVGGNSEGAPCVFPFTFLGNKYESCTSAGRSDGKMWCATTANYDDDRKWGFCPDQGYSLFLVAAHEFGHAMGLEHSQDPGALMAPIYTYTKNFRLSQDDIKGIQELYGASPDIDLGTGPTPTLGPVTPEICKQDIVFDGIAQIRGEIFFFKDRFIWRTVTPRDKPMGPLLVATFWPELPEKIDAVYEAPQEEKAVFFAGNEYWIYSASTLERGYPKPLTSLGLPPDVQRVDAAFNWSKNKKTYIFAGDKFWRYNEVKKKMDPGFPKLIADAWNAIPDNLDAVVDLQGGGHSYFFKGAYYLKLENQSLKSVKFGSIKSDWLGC
T3 sequence (P03956 100-469, species assumed): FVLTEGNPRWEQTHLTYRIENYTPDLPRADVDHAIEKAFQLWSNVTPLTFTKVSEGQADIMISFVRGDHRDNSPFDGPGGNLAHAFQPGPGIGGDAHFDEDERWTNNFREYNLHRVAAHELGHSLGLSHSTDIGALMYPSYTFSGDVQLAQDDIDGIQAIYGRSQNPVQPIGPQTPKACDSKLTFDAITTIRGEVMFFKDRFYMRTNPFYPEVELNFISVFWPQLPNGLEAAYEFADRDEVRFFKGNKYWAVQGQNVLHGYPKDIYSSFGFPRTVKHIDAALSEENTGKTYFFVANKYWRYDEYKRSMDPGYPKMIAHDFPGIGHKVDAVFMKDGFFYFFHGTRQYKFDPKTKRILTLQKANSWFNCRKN
Chain of MMP9 (P14780 94-707, species assumed): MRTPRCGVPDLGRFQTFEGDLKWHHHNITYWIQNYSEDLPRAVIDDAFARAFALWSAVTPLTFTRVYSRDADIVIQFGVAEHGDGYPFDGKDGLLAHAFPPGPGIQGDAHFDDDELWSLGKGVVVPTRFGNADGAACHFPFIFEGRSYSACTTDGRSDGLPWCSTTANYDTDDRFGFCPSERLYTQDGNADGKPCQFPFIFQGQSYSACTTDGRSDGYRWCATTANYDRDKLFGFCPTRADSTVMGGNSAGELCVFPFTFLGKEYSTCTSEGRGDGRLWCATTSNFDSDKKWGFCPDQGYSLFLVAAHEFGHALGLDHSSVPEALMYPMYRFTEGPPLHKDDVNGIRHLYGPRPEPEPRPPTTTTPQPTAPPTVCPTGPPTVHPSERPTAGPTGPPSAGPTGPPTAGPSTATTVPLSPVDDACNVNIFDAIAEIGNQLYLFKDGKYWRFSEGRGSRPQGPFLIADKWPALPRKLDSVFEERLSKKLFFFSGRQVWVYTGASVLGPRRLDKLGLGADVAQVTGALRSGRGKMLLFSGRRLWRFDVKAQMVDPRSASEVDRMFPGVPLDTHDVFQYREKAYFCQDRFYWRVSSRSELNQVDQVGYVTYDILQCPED
Chain of MMP15 (P51511 132-669, species assumed): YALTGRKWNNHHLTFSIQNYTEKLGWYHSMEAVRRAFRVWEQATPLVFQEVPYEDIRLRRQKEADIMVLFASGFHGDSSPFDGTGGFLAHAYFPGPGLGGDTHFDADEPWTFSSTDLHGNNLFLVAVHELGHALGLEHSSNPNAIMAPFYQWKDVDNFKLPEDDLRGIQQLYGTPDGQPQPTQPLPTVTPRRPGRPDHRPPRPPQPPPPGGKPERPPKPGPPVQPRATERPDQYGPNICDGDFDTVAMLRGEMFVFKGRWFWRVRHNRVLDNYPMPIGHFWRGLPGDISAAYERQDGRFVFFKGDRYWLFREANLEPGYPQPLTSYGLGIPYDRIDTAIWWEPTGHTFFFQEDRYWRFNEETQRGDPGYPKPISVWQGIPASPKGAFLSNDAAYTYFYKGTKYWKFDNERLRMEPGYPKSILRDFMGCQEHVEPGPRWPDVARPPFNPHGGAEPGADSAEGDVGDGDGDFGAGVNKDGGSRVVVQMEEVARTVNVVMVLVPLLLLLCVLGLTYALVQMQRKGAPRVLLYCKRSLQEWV
Chain of MMP16 (P51512 120-607, species assumed): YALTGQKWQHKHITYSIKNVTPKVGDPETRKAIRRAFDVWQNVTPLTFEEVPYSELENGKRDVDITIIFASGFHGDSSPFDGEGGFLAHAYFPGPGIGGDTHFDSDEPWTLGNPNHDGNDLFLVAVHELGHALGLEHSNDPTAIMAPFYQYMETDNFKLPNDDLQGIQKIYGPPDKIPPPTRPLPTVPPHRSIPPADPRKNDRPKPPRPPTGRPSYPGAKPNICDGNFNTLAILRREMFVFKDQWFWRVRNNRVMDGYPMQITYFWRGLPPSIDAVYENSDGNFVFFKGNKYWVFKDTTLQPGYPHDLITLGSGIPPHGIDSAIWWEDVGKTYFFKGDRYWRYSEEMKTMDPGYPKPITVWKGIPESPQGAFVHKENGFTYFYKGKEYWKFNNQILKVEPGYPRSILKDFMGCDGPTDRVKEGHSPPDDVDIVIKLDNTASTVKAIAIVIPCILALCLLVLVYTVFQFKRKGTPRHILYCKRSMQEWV
Chain of MMP24 (Q9Y5R2 156-645, species assumed): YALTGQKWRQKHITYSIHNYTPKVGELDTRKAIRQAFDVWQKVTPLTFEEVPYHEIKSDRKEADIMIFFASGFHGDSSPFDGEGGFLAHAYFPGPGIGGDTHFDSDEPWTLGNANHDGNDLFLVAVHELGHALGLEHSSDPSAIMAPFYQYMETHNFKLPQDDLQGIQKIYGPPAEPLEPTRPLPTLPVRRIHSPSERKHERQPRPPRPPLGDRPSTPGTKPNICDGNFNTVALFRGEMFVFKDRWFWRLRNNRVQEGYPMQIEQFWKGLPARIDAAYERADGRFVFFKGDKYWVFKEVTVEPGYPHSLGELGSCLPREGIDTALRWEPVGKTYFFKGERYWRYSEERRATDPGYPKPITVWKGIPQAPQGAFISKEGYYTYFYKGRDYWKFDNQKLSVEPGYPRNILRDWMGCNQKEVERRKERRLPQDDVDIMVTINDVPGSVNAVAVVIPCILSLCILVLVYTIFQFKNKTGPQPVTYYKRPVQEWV
T1 sequence (P03956 20-469 limits assumed): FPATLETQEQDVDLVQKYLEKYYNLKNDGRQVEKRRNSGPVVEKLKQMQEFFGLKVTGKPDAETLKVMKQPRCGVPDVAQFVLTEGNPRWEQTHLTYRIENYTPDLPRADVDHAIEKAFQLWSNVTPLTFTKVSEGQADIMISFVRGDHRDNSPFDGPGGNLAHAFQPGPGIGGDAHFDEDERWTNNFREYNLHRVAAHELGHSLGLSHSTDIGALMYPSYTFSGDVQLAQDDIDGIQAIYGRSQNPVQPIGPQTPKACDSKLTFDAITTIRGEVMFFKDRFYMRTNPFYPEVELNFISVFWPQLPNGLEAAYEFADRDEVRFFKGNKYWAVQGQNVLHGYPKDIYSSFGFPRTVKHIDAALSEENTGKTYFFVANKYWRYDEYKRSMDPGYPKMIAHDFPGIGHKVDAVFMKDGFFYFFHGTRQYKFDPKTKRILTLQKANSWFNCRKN

Structure (SMILES): C[C@H](NC(=O)CN(C)C(=O)CN(C)C(=O)CN(C)C(=O)CN(C)C(=O)CN(C)C(=O)CN(C)C(=O)CN(C)C(=O)CN(C)C(=O)CN(C)C(=O)CN(C)C(=O)CCN)C(=O)N[C@H]1CSCc2cc3cc(c2)CSC[C@H](NC(=O)[C@@H](C)NC(=O)[C@H](Cc2cccc4ccccc24)NC(=O)[C@H](CCC(=O)O)NC(=O)[C@H](CC(N)=O)NC(=O)[C@@H](C)NC1=O)C(=O)N[C@@H](CCC(=O)O)C(=O)N[C@@H](CC(=O)O)C(=O)N[C@@H](Cc1ccccc1)C(=O)N[C@@H](Cc1ccc(O)cc1)C(=O)N[C@@H](CC(=O)O)C(=O)N[C@@H](C(C)(C)C)C(=O)N[C@H](C(N)=O)CSC3 [^177Lu-loaded N241, metal not drawn] (H-[βAla][Sar][Sar][Sar][Sar][Sar][Sar][Sar][Sar][Sar][Sar]AC[dA]NE[1Nal][dA]CEDFYD[Tle]C-NH2; linker 13-19-26 via TBMB; N-terminus and C-terminus assumed)
tumor localization (in words) [1]: rapid tumor localization

IC50 (MDA-MB-231 [5]): 4.8 nM
IC50 (EBC-1 [6]): 4.1 nM
IC50 (HT29 [7]): 4.1 nM
IC50 (NCI-H1975 [8]): 7.2 nM
IC50 (HCT15 [9]): 112 nM
IC50 (HCC1806 [10]): 2.7 nM
IC50 (NCI-H292 [11]): 2.9 nM
IC50 (HT1080 [12]): 6.6 nM
IC50 (SNU-16 [13]): 2.5 nM
IC50 (PC-3 [14]): 9.2 nM
IC50 (MOLP-8 [15]): 6.9 nM
Structure (SMILES): CC(=O)O[C@H]1C(=O)[C@@]2(C)[C@H]([C@H](OC(=O)c3ccccc3)[C@]3(O)C[C@H](OC(=O)[C@H](O)[C@@H](NC(=O)c4ccccc4)c4ccccc4)C(C)=C1C3(C)C)[C@]1(OC(C)=O)CO[C@@H]1C[C@@H]2O [Paclitaxel]
IC50 (EBC-1 [2]): 4 nM
IC50 (NCI-H1975 [3]): 5 nM
IC50 (MOLP-8 [4]): 4 nM
IC50 (HCT15 [16]): 128 nM
IC50 (HT1080 [17]): 1 nM
IC50 (SNU-16 [18]): 2 nM
IC50 (NCI-H292 [19]): 2 nM
IC50 (PC-3 [20]): 12 nM
cytotoxic activity over the cell line panel (in words) (11 tumor cell lines): worked well on all the tested cell lines
IC50 (HCC1806 [21]): 2 nM
IC50 (HT29 [22]): 2 nM
IC50 (MDA-MB-231 [23]): 9 nM

Structure (SMILES): C[C@H](NC(=O)CN(C)C(=O)CN(C)C(=O)CN(C)C(=O)CN(C)C(=O)CN(C)C(=O)CN(C)C(=O)CN(C)C(=O)CN(C)C(=O)CN(C)C(=O)CN(C)C(=O)CCN)C(=O)N[C@H]1CSCc2cc3cc(c2)CSC[C@H](NC(=O)[C@@H](C)NC(=O)[C@H](Cc2cccc4ccccc24)NC(=O)[C@H](CCC(=O)O)NC(=O)[C@H](CC(N)=O)NC(=O)[C@@H](C)NC1=O)C(=O)N[C@@H](CCC(=O)O)C(=O)N[C@@H](CC(=O)O)C(=O)N[C@@H](Cc1ccccc1)C(=O)N[C@@H](Cc1ccc(O)cc1)C(=O)N[C@@H](CC(=O)O)C(=O)N[C@@H](C(C)(C)C)C(=O)N[C@H](C(N)=O)CSC3 [Compound N241] (H-[βAla][Sar][Sar][Sar][Sar][Sar][Sar][Sar][Sar][Sar][Sar]AC[dA]NE[1Nal][dA]CEDFYD[Tle]C-NH2; linker 13-19-26 via TBMB; N-terminus and C-terminus assumed)
binding (in words) (MMP15): no binding
impact on catalytic activity (in words) (MMP9): no direct impact
binding (in words) (Pro-MMP1): no binding
impact on catalytic activity (in words) (MT1): no direct impact
impact on cell migration or invasion (in words) [24]: no direct impact
binding (in words) (MMP2 [25]): no binding
impact on catalytic activity (in words) (MMP2 [26]): no direct impact
binding (in words) (MMP24): no binding
binding (in words) (MMP1 [27]): no binding
binding (in words) (MMP16): no binding
Kd (hemopexin domain of MT1): ~2 nM
impact on catalytic activity (in words) (MMP1 [28]): no direct impact
binding (in words) (catalytic domain of MT1): no binding
